According to ChEMBL document CHEMBL3046023, “Synthesis, in vitro cytotoxicity, and anti-microbial studies of 1,4-bis(4-substituted-5-mercapto-1,2,4-triazol-3-yl)butanes” (Med Chem Res, 2012):
In brackets after ≈: the same amount, converted by molar mass. One block for each molecule: values may come before it.

What was measured:
Pseudomonas aeruginosa = test: Antibacterial activity against Pseudomonas aeruginosa ATCC 27853 after 24 hr by serial dilution method; format: functional; conditions: ATCC 27853, 24 h
Escherichia coli = test: Antibacterial activity against Escherichia coli ATCC 25922 after 24 hr by serial dilution method; format: functional; conditions: ATCC 25922, 24 h
Staphylococcus aureus = test: Antibacterial activity against Staphylococcus aureus ATCC 25923 after 24 hr by serial dilution method; format: functional; conditions: ATCC 25923, 24 h
Bacillus subtilis = test: Antibacterial activity against Bacillus subtilis ATCC 6633 after 24 hr by serial dilution method; format: functional; conditions: ATCC 6633, 24 h
MDA-MB-231 = test: Cytotoxicity against Homo sapiens (human) MDA-MB-231 cells after 72 hr by MTT assay; format: functional, cell-based; conditions: MDA-MB-231, 72 h
HT-29 = test: Cytotoxicity against Homo sapiens (human) HT-29 cells after 72 hr by MTT assay; format: functional, cell-based; conditions: HT-29, 72 h
A549 = test: Cytotoxicity against Homo sapiens (human) A549 cells after 72 hr by MTT assay; format: functional, cell-based; conditions: A549, 72 h

Structure (SMILES): NNC(=O)CSc1nnc(CCCCc2nnc(SCC(=O)NN)n2C2CCCCC2)n1C1CCCCC1
- MIC (Escherichia coli): 50 µg/mL (≈ 88.5 µM)
- MIC (Bacillus subtilis): 100 µg/mL (≈ 177 µM)
- IC50 (MDA-MB-231): 70.2 µM
- IC50 (HT-29): 66.2 µM
- IC50 (A549): 65.3 µM

Structure (SMILES): CCCCn1c(CCCCc2nnc(SCC(=O)NN)n2CCCC)nnc1SCC(=O)NN
- MIC (Escherichia coli): 100 µg/mL (≈ 195 µM)
- MIC (Bacillus subtilis): 100 µg/mL (≈ 195 µM)
- IC50 (MDA-MB-231): 59.8 µM
- IC50 (HT-29): 63.4 µM
- IC50 (A549): 69.3 µM

Structure (SMILES): CCOC(=O)CSc1nnc(CCCCc2nnc(SCC(=O)OCC)n2C2CCCCC2)n1C1CCCCC1
- MIC (Escherichia coli): 100 µg/mL (≈ 169 µM)
- MIC (Bacillus subtilis): 100 µg/mL (≈ 169 µM)
- IC50 (MDA-MB-231): 70.4 µM
- IC50 (HT-29): 65.3 µM
- IC50 (A549): 51.9 µM

Structure (SMILES): CCCCn1c(CCCCc2nnc(SCC(=O)OCC)n2CCCC)nnc1SCC(=O)OCC
- MIC (Escherichia coli): 100 µg/mL (≈ 185 µM)
- MIC (Bacillus subtilis): 100 µg/mL (≈ 185 µM)
- IC50 (MDA-MB-231): 71.4 µM
- IC50 (HT-29): 69.8 µM
- IC50 (A549): 61.5 µM

Structure (SMILES): NNC(=O)CSc1nnc(CCCCc2nnc(SCC(=O)NN)n2-c2ccccc2)n1-c1ccccc1
- MIC (Pseudomonas aeruginosa): 100 µg/mL (≈ 181 µM)
- MIC (Escherichia coli): 25 µg/mL (≈ 45.2 µM)
- MIC (Staphylococcus aureus): 25 µg/mL (≈ 45.2 µM)
- MIC (Bacillus subtilis): 25 µg/mL (≈ 45.2 µM)
- IC50 (MDA-MB-231): 69.9 µM
- IC50 (HT-29): 65.3 µM
- IC50 (A549): 63.2 µM

Structure (SMILES): CCOC(=O)CSc1nnc(CCCCc2nnc(SCC(=O)OCC)n2-c2ccc(C)cc2)n1-c1ccc(C)cc1
- MIC (Pseudomonas aeruginosa): 100 µg/mL (≈ 164 µM)
- MIC (Escherichia coli): 100 µg/mL (≈ 164 µM)
- MIC (Staphylococcus aureus): 100 µg/mL (≈ 164 µM)
- MIC (Bacillus subtilis): 100 µg/mL (≈ 164 µM)
- IC50 (MDA-MB-231): 24.3 µM
- IC50 (HT-29): 13.5 µM
- IC50 (A549): 9.13 µM

Structure (SMILES): CCOC(=O)CSc1nnc(CCCCc2nnc(SCC(=O)OCC)n2-c2cccc(C)c2)n1-c1cccc(C)c1
- MIC (Pseudomonas aeruginosa): 100 µg/mL (≈ 164 µM)
- MIC (Escherichia coli): 50 µg/mL (≈ 82.1 µM)
- MIC (Staphylococcus aureus): 100 µg/mL (≈ 164 µM)
- MIC (Bacillus subtilis): 50 µg/mL (≈ 82.1 µM)
- IC50 (MDA-MB-231): 25.2 µM
- IC50 (HT-29): 25.8 µM
- IC50 (A549): 23.3 µM

Structure (SMILES): CCOC(=O)CSc1nnc(CCCCc2nnc(SCC(=O)OCC)n2-c2ccc(OCC)cc2)n1-c1ccc(OCC)cc1
- MIC (Pseudomonas aeruginosa): 100 µg/mL (≈ 150 µM)
- MIC (Escherichia coli): 25 µg/mL (≈ 37.4 µM)
- MIC (Staphylococcus aureus): 50 µg/mL (≈ 74.8 µM)
- MIC (Bacillus subtilis): 25 µg/mL (≈ 37.4 µM)
- IC50 (MDA-MB-231): 15.1 µM
- IC50 (HT-29): 13.2 µM
- IC50 (A549): 9.3 µM

Structure (SMILES): CCOc1ccc(-n2c(CCCCc3nnc(SC(=O)N(CC)CC)n3-c3ccc(OCC)cc3)nnc2SC(=O)N(CC)CC)cc1
- MIC (Escherichia coli): 100 µg/mL (≈ 144 µM)
- MIC (Bacillus subtilis): 50 µg/mL (≈ 71.9 µM)
- IC50 (MDA-MB-231): 71.6 µM
- IC50 (HT-29): 75 µM
- IC50 (A549): 51.9 µM

Structure (SMILES): CCN(CC)C(=O)Sc1nnc(CCCCc2nnc(SC(=O)N(CC)CC)n2C2CCCCC2)n1C1CCCCC1
- MIC (Escherichia coli): 100 µg/mL (≈ 162 µM)
- MIC (Bacillus subtilis): 100 µg/mL (≈ 162 µM)
- IC50 (MDA-MB-231): 66.2 µM
- IC50 (HT-29): 69.9 µM
- IC50 (A549): 51.8 µM

Structure (SMILES): CCCCn1c(CCCCc2nnc(SC(=O)N(CC)CC)n2CCCC)nnc1SC(=O)N(CC)CC
- IC50 (MDA-MB-231): 70.3 µM
- IC50 (HT-29): 64.5 µM
- IC50 (A549): 63.1 µM

Structure (SMILES): CCOC(=O)CSc1nnc(CCCCc2nnc(SCC(=O)OCC)n2-c2ccccc2)n1-c1ccccc1
- MIC (Pseudomonas aeruginosa): 100 µg/mL (≈ 172 µM)
- MIC (Escherichia coli): 50 µg/mL (≈ 86.1 µM)
- MIC (Staphylococcus aureus): 100 µg/mL (≈ 172 µM)
- MIC (Bacillus subtilis): 100 µg/mL (≈ 172 µM)
- IC50 (MDA-MB-231): 32.2 µM
- IC50 (HT-29): 51.2 µM
- IC50 (A549): 34.5 µM

Structure (SMILES): CC1(C)S[C@@H]2[C@H](NC(=O)[C@H](N)c3ccccc3)C(=O)N2[C@H]1C(=O)O [AMPICILLIN]
- MIC (Pseudomonas aeruginosa): 12.5 µg/mL (≈ 35.8 µM)
- MIC (Escherichia coli): 6.25 µg/mL (≈ 17.9 µM)
- MIC (Staphylococcus aureus): 6.25 µg/mL (≈ 17.9 µM)
- MIC (Bacillus subtilis): 12.5 µg/mL (≈ 35.8 µM)

Structure (SMILES): COc1cccc2c1C(=O)c1c(O)c3c(c(O)c1C2=O)C[C@@](O)(C(=O)CO)C[C@@H]3O[C@H]1C[C@H](N)[C@H](O)[C@H](C)O1 [DOXORUBICIN]
- IC50 (MDA-MB-231): 0.1 µM
- IC50 (HT-29): 0.07 µM
- IC50 (A549): 0.09 µM

Further lines, with some results ahead:

- MIC (Pseudomonas aeruginosa): 100 µg/mL (≈ 172 µM)
- MIC (Escherichia coli): 12.5 µg/mL (≈ 21.5 µM)
- MIC (Staphylococcus aureus): 12.5 µg/mL (≈ 21.5 µM)
- MIC (Bacillus subtilis): 12.5 µg/mL (≈ 21.5 µM)
Structure (SMILES): Cc1ccc(-n2c(CCCCc3nnc(SCC(=O)NN)n3-c3ccc(C)cc3)nnc2SCC(=O)NN)cc1
- IC50 (MDA-MB-231): 32.2 µM
- IC50 (HT-29): 31.2 µM
- IC50 (A549): 36.9 µM

- MIC (Escherichia coli): 25 µg/mL (≈ 43 µM)
- MIC (Staphylococcus aureus): 25 µg/mL (≈ 43 µM)
- MIC (Bacillus subtilis): 25 µg/mL (≈ 43 µM)
Structure (SMILES): Cc1cccc(-n2c(CCCCc3nnc(SCC(=O)NN)n3-c3cccc(C)c3)nnc2SCC(=O)NN)c1
- IC50 (MDA-MB-231): 40.2 µM
- IC50 (HT-29): 38.2 µM
- IC50 (A549): 39.1 µM

- MIC (Pseudomonas aeruginosa): 12.5 µg/mL (≈ 19.5 µM)
- MIC (Escherichia coli): 12.5 µg/mL (≈ 19.5 µM)
- MIC (Staphylococcus aureus): 12.5 µg/mL (≈ 19.5 µM)
- MIC (Bacillus subtilis): 6.25 µg/mL (≈ 9.75 µM)
Structure (SMILES): CCOc1ccc(-n2c(CCCCc3nnc(SCC(=O)NN)n3-c3ccc(OCC)cc3)nnc2SCC(=O)NN)cc1
- IC50 (MDA-MB-231): 13.2 µM
- IC50 (HT-29): 5.16 µM
- IC50 (A549): 9.13 µM

- MIC (Pseudomonas aeruginosa): 50 µg/mL (≈ 82.4 µM)
- MIC (Escherichia coli): 12.5 µg/mL (≈ 20.6 µM)
- MIC (Staphylococcus aureus): 50 µg/mL (≈ 82.4 µM)
- MIC (Bacillus subtilis): 25 µg/mL (≈ 41.2 µM)
Structure (SMILES): CCN(CC)C(=O)Sc1nnc(CCCCc2nnc(SC(=O)N(CC)CC)n2-c2ccccc2)n1-c1ccccc1
- IC50 (MDA-MB-231): 14.9 µM
- IC50 (HT-29): 14.3 µM
- IC50 (A549): 19.3 µM

- MIC (Pseudomonas aeruginosa): 25 µg/mL (≈ 39.4 µM)
- MIC (Escherichia coli): 12.5 µg/mL (≈ 19.7 µM)
- MIC (Staphylococcus aureus): 25 µg/mL (≈ 39.4 µM)
- MIC (Bacillus subtilis): 12.5 µg/mL (≈ 19.7 µM)
Structure (SMILES): CCN(CC)C(=O)Sc1nnc(CCCCc2nnc(SC(=O)N(CC)CC)n2-c2ccc(C)cc2)n1-c1ccc(C)cc1
- IC50 (MDA-MB-231): 8.17 µM
- IC50 (HT-29): 3.45 µM
- IC50 (A549): 3.23 µM

- MIC (Pseudomonas aeruginosa): 25 µg/mL (≈ 39.4 µM)
- MIC (Escherichia coli): 12.5 µg/mL (≈ 19.7 µM)
- MIC (Staphylococcus aureus): 50 µg/mL (≈ 78.8 µM)
- MIC (Bacillus subtilis): 25 µg/mL (≈ 39.4 µM)
Structure (SMILES): CCN(CC)C(=O)Sc1nnc(CCCCc2nnc(SC(=O)N(CC)CC)n2-c2cccc(C)c2)n1-c1cccc(C)c1
- IC50 (MDA-MB-231): 17.2 µM
- IC50 (HT-29): 10.2 µM
- IC50 (A549): 15.2 µM
